Assay [1] has as its system Staphylococcus aureus (S. aureus) 29213. Nature of the assay: Antibacterial activity, microbroth dilution MIC (Table 1). It counts as cell-based. Particulars: microbroth dilution, Gram-positive S. aureus 29213, read-out: MIC, 29213. The method in brief:
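MIC (μg/mL) is taken as the lowest concentration with no macroscopically visible growth. Strains tested by microbroth dilution: Gram-positive S. aureus 29213, control Gram-negative E. coli 25922, and super-sensitive E. coli BAS849.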
For orientation: In broth dilution the organism is exposed to a series of concentrations in liquid medium.

In assay [2] the test system is Escherichia coli (E. coli) BAS849. The description is as above. The note with it: microbroth dilution, super sensitive Gram-negative E. coli BAS849, read-out: MIC, BAS849. It counts as cell-based. The gist of the method: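 Lowest concentration stopping macroscopically visible growth under test conditions, by broth microdilution, defines the MIC (μg/mL).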
Assay [3] relates to K. pneumoniae MXX1232. Put plainly: Antibacterial activity, MIC, resistant strain (Table 4). It counts as cell-based. Particulars: Klebsiella pneumoniae, MXX1232; resistant K. pneumoniae MMX1232, multi-drug resistant clinical isolate; read-out: MIC, MMX1232. The method in brief:
(§1)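 The resistant panel comprises multi-drug resistant clinical isolates. All strains were tested by microbroth dilution, with the MIC in μg/mL taken as the lowest concentration that prevented macroscopically visible growth.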

Assay [4] has as its system A. baumannii MXX2240. The assay is described as above. The note with it: Acinetobacter baumannii, MXX2240; resistant A. baumannii MMX2240, multi-drug resistant clinical isolate; read-out: MIC, MMX2240. It counts as cell-based. The method in brief:
as §1

Assay [5] deals with E. coli LZ3111. Put plainly: Antibacterial activity, MIC, quinolone resistant strain (Table 2). It counts as cell-based. The note with it: Escherichia coli, LZ3111, read-out: MIC LZ3111. The gist of the method:
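Lowest concentration giving no macroscopically visible growth was taken as the MIC (μg/mL) after microbroth dilution testing.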

Assay [6] has as its system Acinetobacter baumannii (A. baumannii) BAA747. Nature of the assay: Antibacterial activity, MIC (Table 4). The format is cell-based. The note with it: A. baumannii BAA747, read-out: MIC, BAA747. The method in brief:
as §1

In assay [7] the test system is Klebsiella pneumoniae (K. pneumoniae) 35657. Nature of the assay: Antibacterial activity, MIC (Table 4). It counts as cell-based. The note with it: K. pneumoniae 35657, read-out: MIC, 35657. The method in brief:
as §1

For assay [8], the system named is Pseudomonas aeruginosa (P. aeruginosa) 27853. Nature of the assay: Antibacterial activity, MIC (Table 5). Particulars: P. aeruginosa 27853, read-out: MIC, 27853. The format is cell-based. The gist of the method: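 MIC in μg/mL from broth microdilution; endpoint is the lowest drug level giving no visible growth.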
The test system of assay [9] is E. coli 25922. Nature of the assay: Antibacterial activity, microbroth dilution MIC (Table 1). The format is cell-based, Escherichia coli. Particulars: Escherichia coli; microbroth dilution; control Gram-negative E. coli 25922 strain; read-out: MIC, 25922. The gist of the method:
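Potency is reported as minimum inhibitory concentration in μg/mL, determined by broth microdilution as the lowest level of compound that stops growth visible to the eye.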

We go through eight molecules from patent US9409905B2, “Antibacterial compounds and methods for use” (PTC THERAPEUTICS, INC., priority 2011, dated 2016).

One may read the MIC as the smallest concentration in the dilution series that meets the test's criterion for growth inhibition.

The structures appear in SMILES notation. Values after ≈ are worked out from the molar mass of the structure shown.

For the molecule `Cn1ccc2cc(-c3[nH]c(=O)c(C(=O)O)c(O)c3Cl)ccc21` [Cpd 376, 5-chloro-4-hydroxy-6-(1-methyl-1H-indol-5-yl)-2-oxo-1,2-dihydropyridine-3-carboxylic acid], the MIC lay within 12.5 to 150 µg/mL (≈ 39.2 to 471 µM) in assay [1]; 3.5 to 12.5 µg/mL (≈ 11 to 39.2 µM) in [2]; 12.5 to 150 µg/mL (≈ 39.2 to 471 µM) in [3]; 12.5 to 150 µg/mL (≈ 39.2 to 471 µM) in assay [4]; 12.5 to 150 µg/mL (≈ 39.2 to 471 µM) in [5]; 12.5 to 150 µg/mL (≈ 39.2 to 471 µM) in assay [6]. Moreover, the MIC in assay [7], in [8] and in assay [9] was 12.5 to 150 µg/mL (≈ 39.2 to 471 µM) each time.
Turning to `COc1c(-c2ccc3c(ccn3C)c2)[nH]c(=O)c(C(=O)O)c1O` [Cpd 377, 4-hydroxy-5-methoxy-6-(1-methyl-1H-indol-5-yl)-2-oxo-1,2-dihydropyridine-3-carboxylic acid], the MIC in assay [1] is 12.5 to 150 µg/mL (≈ 39.8 to 477 µM); in assay [2], < 1 µg/mL; in assay [3], 12.5 to 150 µg/mL (≈ 39.8 to 477 µM); in [4] it was 3.5 to 12.5 µg/mL (≈ 11.1 to 39.8 µM); in assay [5], 3.5 to 12.5 µg/mL (≈ 11.1 to 39.8 µM); in assay [6] it was 12.5 to 150 µg/mL (≈ 39.8 to 477 µM). Further, the minimal inhibitory concentration (MIC) in [7], in assay [8] and in assay [9] was 12.5 to 150 µg/mL (≈ 39.8 to 477 µM) in each case.
On to `CCOc1c(-c2ccc3c(ccn3C)c2)[nH]c(=O)c(C(=O)O)c1O` [Cpd 378, 4-hydroxy-5-ethoxy-6-(1-methyl-1H-indol-5-yl)-2-oxo-1,2-dihydropyridine-3-carboxylic acid], for which the MIC in assay [1] lay in the range of 12.5 to 150 µg/mL (≈ 38.1 to 457 µM); in [2], 3.5 to 12.5 µg/mL (≈ 10.7 to 38.1 µM); in [3], 12.5 to 150 µg/mL (≈ 38.1 to 457 µM); in assay [4], 3.5 to 12.5 µg/mL (≈ 10.7 to 38.1 µM); in assay [5], 3.5 to 12.5 µg/mL (≈ 10.7 to 38.1 µM); in assay [6], 12.5 to 150 µg/mL (≈ 38.1 to 457 µM). The MIC in assay [7], in assay [8] and in assay [9] was 12.5 to 150 µg/mL (≈ 38.1 to 457 µM) each time.
As for `CCc1c(-c2cc3ccc(OC)cc3[nH]2)[nH]c(=O)c(C(=O)O)c1O` [Cpd 379, 5-ethyl-4-hydroxy-6-(6-methoxy-1H-indol-2-yl)-2-oxo-1,2-dihydropyridine-3-carboxylic acid], the minimum inhibitory concentration (MIC) in assay [1] fell in the range of 12.5 to 150 µg/mL (≈ 38.1 to 457 µM); in assay [2] it was 3.5 to 12.5 µg/mL (≈ 10.7 to 38.1 µM); in [3] it was 12.5 to 150 µg/mL (≈ 38.1 to 457 µM); in assay [4] it was 12.5 to 150 µg/mL (≈ 38.1 to 457 µM); in assay [5], 12.5 to 150 µg/mL (≈ 38.1 to 457 µM); in assay [6], 12.5 to 150 µg/mL (≈ 38.1 to 457 µM). Besides, the MIC in assay [7], in [8] and in assay [9] was 12.5 to 150 µg/mL (≈ 38.1 to 457 µM) throughout.
As for `CCc1c(-c2cc3cc(F)ccc3[nH]2)[nH]c(=O)c(C(=O)O)c1O` [Cpd 380, 5-ethyl-6-(5-fluoro-1H-indol-2-yl)-4-hydroxy-2-oxo-1,2-dihydropyridine-3-carboxylic acid], the MIC in [1] is 12.5 to 150 µg/mL (≈ 39.5 to 474 µM); in assay [2], 3.5 to 12.5 µg/mL (≈ 11.1 to 39.5 µM); in [3], 12.5 to 150 µg/mL (≈ 39.5 to 474 µM); in assay [4], 12.5 to 150 µg/mL (≈ 39.5 to 474 µM); in [5], 12.5 to 150 µg/mL (≈ 39.5 to 474 µM); in assay [6], 12.5 to 150 µg/mL (≈ 39.5 to 474 µM). Also, the minimum inhibitory concentration (MIC) in [7], in assay [8] and in assay [9] was 12.5 to 150 µg/mL (≈ 39.5 to 474 µM) throughout.
For `CCc1ccc2[nH]c(-c3[nH]c(=O)c(C(=O)O)c(O)c3CC)cc2c1` [Cpd 381, 5-ethyl-6-(5-ethyl-1H-indol-2-yl)-4-hydroxy-2-oxo-1,2-dihydropyridine-3-carboxylic acid], the MIC in assay [1] is 3.5 to 12.5 µg/mL (≈ 10.7 to 38.3 µM); in [2], < 1 µg/mL; in [3], 12.5 to 150 µg/mL (≈ 38.3 to 460 µM); in [4] it was 12.5 to 150 µg/mL (≈ 38.3 to 460 µM); in assay [5], 12.5 to 150 µg/mL (≈ 38.3 to 460 µM); in assay [6] it was 12.5 to 150 µg/mL (≈ 38.3 to 460 µM). The minimum inhibitory concentration (MIC) in [7], in [8] and in assay [9] was 12.5 to 150 µg/mL (≈ 38.3 to 460 µM) each time.
`CCc1ccc2cc(-c3[nH]c(=O)c(C(=O)O)c(O)c3CC)[nH]c2c1` [Cpd 382, 5-ethyl-6-(6-ethyl-1H-indol-2-yl)-4-hydroxy-2-oxo-1,2-dihydropyridine-3-carboxylic acid]: the minimum inhibitory concentration (MIC) is 3.5 to 12.5 µg/mL (≈ 10.7 to 38.3 µM) in assay [1]; < 1 µg/mL in [2]; 12.5 to 150 µg/mL (≈ 38.3 to 460 µM) in assay [3]; 12.5 to 150 µg/mL (≈ 38.3 to 460 µM) in assay [4]; 12.5 to 150 µg/mL (≈ 38.3 to 460 µM) in assay [5]; 12.5 to 150 µg/mL (≈ 38.3 to 460 µM) in [6]. Moreover, the MIC in [7], in assay [8] and in [9] was 12.5 to 150 µg/mL (≈ 38.3 to 460 µM) in each case.
Take `CCCc1ccc2[nH]c(-c3[nH]c(=O)c(C(=O)O)c(O)c3CC)cc2c1` [Cpd 383, 5-ethyl-4-hydroxy-2-oxo-6-(5-propyl-1H-indol-2-yl)-1,2-dihydropyridine-3-carboxylic acid]: the MIC in assay [1] was 3.5 to 12.5 µg/mL (≈ 10.3 to 36.7 µM); in assay [2], < 1 µg/mL; in assay [3], 12.5 to 150 µg/mL (≈ 36.7 to 441 µM); in assay [4], 12.5 to 150 µg/mL (≈ 36.7 to 441 µM); in assay [5] it was 12.5 to 150 µg/mL (≈ 36.7 to 441 µM); in assay [6] it was 12.5 to 150 µg/mL (≈ 36.7 to 441 µM). Also, the MIC in [7], in [8] and in [9] was 12.5 to 150 µg/mL (≈ 36.7 to 441 µM) in each case.
